Patent US20250057808A1, “COMPOSITION COMPRISING BETA LACTAM FOR TREATING ALCOHOL DEPENDENCE AND ALCOHOL ASSOCIATED DISEASES OR CONDITIONS” (Temple University of the Commonwealth System of Higher …, priority 2023, published 2025)
Entries after “also recorded” stand apart in the source; their conditions may differ.

Columns and labels:
[1] = Ethanol drinking paradigm, three-bottle choice (MC-100093 50 mg/kg vs ceftriaxone 200 mg/kg); type: in vivo, P rats
Method: P rats were received from Indiana University School of Medicine (Indianapolis, IN, USA), and were housed in a 21° C. on a 12/12 h light/dark cycle-maintained room where they had free access to water and food. All experimental procedures were approved by the Institutional Animal Care and Use Committee (IACUC) of The University of Toledo, in accordance with the guidelines governing the use of animals in research of the National Institutes of Health as described in the Guidefor the Care and Use of Laboratory Animals.
We used an ethanol drinking paradigm as described previously by Alhaddad, et al. (2014). Briefly, animals started the experimental drinking procedure at age of 90 days. The animals had five weeks of exposure to continuous three-bottle choice drinking, 0%, 15% and 30%, v/v ethanol in water, available concurrently. Daily measurement of ethanol intake was performed (g of ethanol intake/kg of body weight/day). We measured the baseline ethanol drinking by average the intake during the last three weeks. Three groups of P rats (n=8-9/group) exposed to the five weeks ethanol exposure. At week 6, rats in each group received daily intraperitoneal injection of either MC-100093 at dose of 50 mg/kg (Ethanol-MC group), Ceftriaxone at dose of 200 mg/kg (Ethanol-CEF group, which also serves as positive control), or equivolume of saline vehicle (Ethanol group) for five days. This paradigm results in pharmacologically relevant blood alcohol concentration (50-200 mg %). Following the criteria for the development of ethanol dependence, rats whose average ethanol intake <4 g/kg/day were excluded from the study. Beside the ethanol exposed groups, another group of P rats (n=8) exposed to only water and food throughout the exposure procedures (control group).
All statistical analyses were conducted with Graphpad Prism software, with p-values of 0.05 or less being statistically significant. We performed a two-way (mixed model) ANOVA followed by Bonferroni multiple comparison post-hoc test to analyze 24 h ethanol consumption, 24 h water consumption, and daily body weight. For the Western blot and oil red O staining analysis, we performed one-way ANOVA with Newman-Keuls as a post hoc multiple comparison test to measure differences between groups as a percentage (relative to control values).

HMGβ-1 = assay: Western blot HMGβ-1 in subregions of mPFC and NAc; type: in vivo, Male P rats
Method: All P rats were euthanized by CO2 inhalation and decapitated with a guillotine 24 hours after the final i.p. injection was administered on Day 6 of Week 6. Brains were removed and immediately frozen on dry ice and stored at −80° C. The mPFC subregions (infralimbic cortex and prelimbic cortex) and NAc subregions (core and shell) were dissected using a cryostat machine kept at −20° C. Surgical blades were used to dissect all brain regions following visualized landmarks using the stereotaxic coordinates provided by Paxinos and colleague's rat brain stereotactic atlas. All brain regions were stored in −80° C. Western Blot analyses.
Western blot was performed to determine the expression of BDNF, TNF-α, RAGE, HMGβ-1, and β-tubulin in the subregions of mPFC and NAc as preformed in previous studies.
Brain samples were lysed with a lysing buffer containing protease inhibitors. The amount of protein in each sample was quantified using a detergent compatible protein assay (Bio-Rad, Hercules, CA, USA). Polyacrylamide gels (10%) were loaded with the lysate mixture, and proteins were separated using gel electrophoresis for 1 hour. Proteins were then transferred from the gels onto Polyvinylidene difluoride (PVDF) membranes (BioRad). After transfer, membranes were incubated for 30 minutes in a mixture of nonfat milk in 1×Tris-buffered saline with Tween-20 (TBST) at room temperature. Membranes were then incubated at 4° C. for 24 hours with primary antibodies: anti-rabbit BDNF (1:1000, Abeam, #ab108319), anti-rabbit TNF-α (1:500, Abeam, #ab9739), anti-rabbit HMGβ-1 (1:500, Abeam, #ab18256), and anti-rabbit RAGE (1:1000, Abeam, #ab37407). Anti-mouse-β-tubulin (1:1000, Cell Signaling Technology, #D71G9) was used as a loading control antibody. After incubating for 24 hours, secondary antibody such as donkey anti-rabbit (1:4000, Invitrogen, #31458) or anti-mouse (1:4000, Cell Signaling, #7076S) was added to the membrane for 1 hour at room temperature. The membranes were then washed with 1×TBST three times for 5 minutes each and then dried. Membranes were then incubated in chemiluminescent reagents (Super Signal West Pico, Pierce Inc.) for 2 minutes. Blot images were developed using ChemiDoc. Imaging System and ImageJ software version 1.53a were used to quantify and analyze the expression of BDNF, TNF-α, RAGE, HMGβ-1, and β-tubulin.
The data for the water/saline control group were expressed as 100% based on the values corresponding to the ethanol/saline and ethanol/MC-100093 groups for each set of blotting. Thus, the expression of selected proteins for each group (ethanol/saline group or ethanol/MC-100093 group) was calculated relative to the water/saline control group being set to 100%.
Statistical analyses were performed using GraphPad Prism Version 10. Two-way repeated measures ANOVA followed by Bonferroni post-hoc tests were used to compare water and ethanol intake, and body weight, amongst water group, ethanol/saline group and ethanol/MC-100093 group. A one-way ANOVA test was performed to compare the expression of the studied proteins in selected brain regions in water/saline, ethanol/saline and ethanol/MC-100093 groups. Statistical significance was determined by a p-value of or less than 0.05.

[2] = 100 mg/kg i.p., compared to ethanol/saline group

C[C@@H](O)[C@H]1C(=O)N[C@@H]1[C@@H](C)C(=O)N1CCN(C)CC1 [MC-100093]
Body weight (grams) ([1]; MC-100093 50 mg/kg i.p. or ceftriaxone 200 mg/kg i.p. 5 days): Neither MC-100093 (50 mg/kg, i.p.) nor Ceftriaxone (200 mg/kg, i.p.) treatment has significant effect; also recorded: no significant effects | Water intake (mL/day) ([1]; MC-100093 50 mg/kg i.p. or ceftriaxone 200 mg/kg i.p. 5 days, vs Ethanol-Saline group (MC-100093: at day 5 only)): significant increase in water consumption | Ethanol consumption (g/kg of average body weight/24 hr) ([1]; P rats after 5 wk ethanol, MC-100093 50 mg/kg i.p. or ceftriaxone 200 mg/kg i.p. daily 5 days, vs Ethanol-Saline group): significant decrease in ethanol consumption from day 1 through day 5; also recorded: significantly reduced ethanol consumption from day 2 through day 5; also recorded: attenuated ethanol drinking behavior; also recorded: attenuated moderately ethanol intake as compared to ceftriaxone | HMGβ-1 expression in the NAc shell (HMGβ-1; 100 mg/kg i.p., compared to ethanol group): decreased the expression of HMGβ-1 | HMGβ-1 expression in the IL (HMGβ-1; [2]): decreased HMGβ-1 expression | HMGβ-1 expression in the NAc core (HMGβ-1; [2]): decreased the expression of HMGβ-1 | HMGβ-1 expression in the PL (HMGβ-1; [2]): decreased the expression of HMGβ-1 | HMGβ-1 expression in IL, PL, NAc core and NAc shell (summary) (HMGβ-1; post-treatment with MC-100093 100 mg/kg i.p., 100 mg/kg): normalized HMGβ-1 expression in all these brain regions; also recorded: attenuated ethanol-induced upregulation of pro-inflammatory cytokines such as TNF-a and HMGB1
